Among the data in US20250332173A1, “COMPOUNDS AND METHODS FOR MODULATING NUCLEIC ACID SPLICING” (REMIX THERAPEUTICS INC., priority 2021, published 2025) are IC50 and GI50 values, retold here.

The structures appear in SMILES notation. Where two headings read alike, the source gives them in different places.

For test [1], the system named is Target C. The test is described as follows: RT-qPCR splicing assay panel, Target C canonical junction (CJ) mRNA. Type of test: cell-based, human. The following applies: Homo sapiens. In outline: (§1)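 K562/A673 cells, 11-pt 3-fold compound titration from 10 uM final, DMSO ≤0.25%, 24 h 37 °C 5% CO2; lyse (DNase I or Igepal/Tris buffer pH 7.4); RT-qPCR for CJ isoform vs housekeeping gene (GAPDH/GUSB/PPIA).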

Test [2] relates to MYB. In words: HiBiT protein abundance assay, MYB HiBiT K562 cell line. Type of test: cell-based, human. As to conditions: 24 hours, top dose 10 μM. The gist of the method:
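K562 knock-in lines with endogenous HiBiT-tagged target, 10,000 cells/well in IMDM + FBS, treated 24 h at 37° C with 10-point 3-fold dilutions (top 10 μM final; DMSO ≤0.25%). Lytic Nano-Glo HiBiT luminescence normalized to untagged K562 baseline and DMSO controls; IC50 = concentration giving 50% abundance via four-parameter fit.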
Background: With HiBiT, luminescence reflects the tagged protein that the partner subunit can reach.

Test [3] relates to K562 (human chronic myelogenous leukemia) cells. In words: Cell Titer Glo 2.0 cell viability assay. It counts as cell-based. As to conditions: Homo sapiens, K562, 72 h, K562 cells, 72 hours, Cell Titer Glo 2.0; read-out: K562 GI50. On the technique in general: In ATP-based viability assays light output follows the ATP content of the culture.
Method: Compounds described herein were screened for toxicity in K562 (human chronic myelogenous leukemia) cells using a Cell Titer Glo 2.0 assay.
Cells were plated at 500 cells/well (K562 cells) in 45 μL of IMDM supplemented with 1000 FBS in a 384-well opaque plate. Wells containing only medium were used as a blank control. Test compounds (e.g., compounds ofFormula (I), (II), (III), (IV), (V), (VI), (VII), (VIII), and (IX)) were first serially diluted in DMSO then diluted 1:100 with IMDM+10% FBS. The final concentration of DMSO was 0.1% in each well. The cells were incubated for 72 hours at 37° C. and 500 CO2 before assaying with Cell Titer Glo 2.0 reagent.
The test system of test [4] is SMN2 mRNA. In words: RT-qPCR splicing assay, SMN2 canonical junction (CJ) mRNA. As to conditions: Homo sapiens. It counts as cell-based, human. The gist of the method:
as §1
Background: Real-time PCR tracks product formation cycle by cycle.

[5] abbreviates: canonical junction qPCR panel, Table 5, read-out: Target C (decrease in CJ mRNA levels, IC50).
Where [6] appears, read: HiBiT lytic detection, modified K562 cells, read-out: Effect on protein abundance, MYB (IC50).
[7] abbreviates: canonical junction qPCR panel, Table 5, read-out: SMN2 (decrease in CJ mRNA levels, IC50).
The mark [8] stands for this setting: HiBiT K562 cell line, read-out: Effect on protein abundance, MYB (IC50 category).
Setting [9] is: Table 5 panel, canonical junction qPCR, compound concentration having 50% response in CJ decrease, read-out: Target C IC50 (decrease in CJ mRNA levels).
Setting [10] is: Table 5 panel, canonical junction qPCR, compound concentration having 50% response in CJ decrease, read-out: SMN2 IC50 (decrease in CJ mRNA levels).

One may read the IC50 as the concentration that gives 50% inhibition. One may read the GI50 as the concentration that inhibits growth by half. In the case of `Cc1cn2nc(-c3ccc4c(=O)n(C5CC(C)N[C@H](C)C5)ncc4n3)cc(C)c2n1` (stereo in doubt) [Compound 1536, 2-(2,8-dimethylimidazo[1,2-b]pyridazin-6-yl)-6-[(2S,6R)-2,6-dimethyl-4-piperidyl]pyrido[2,3-d]pyridazin-5-one], the IC50 in test [1] (setting [5]) was 0.1 to 1 µM; in test [2] (setting [6]), 0.1 to 1 µM; in test [4] (setting [7]), < 0.1 µM. The concentration for 50% growth inhibition (GI50) in test [3] was in the range of 0.1 to 1 µM.

For `Cc1cn2nc(-c3ccc4c(=O)n(C5C[C@@H](C)N[C@H](C)C5)ncc4n3)cc(C)c2n1` (stereo in doubt) [Compound 1537, 2-(2,8-dimethylimidazo[1,2-b]pyridazin-6-yl)-6-[(2R,6R)-2,6-dimethyl-4-piperidyl]pyrido[2,3-d]pyridazin-5-one], the values for the IC50 in test [1] (setting [5]), in test [2] (setting [8]) and in test [4] (setting [7]) were 0.1 to 1 µM, 0.1 to 1 µM and < 0.1 µM, respectively. Further, in test [3], the GI50 was 0.1 to 1 µM.

For the compound `Cc1cn2nc(-c3ccc4c(=O)n([C@H]5CC(C)N[C@@H](C)C5)ncc4n3)cc(C)c2n1` (stereo in doubt) [Compound 1538, 2-(2,8-dimethylimidazo[1,2-b]pyridazin-6-yl)-6-[(2S,6S)-2,6-dimethyl-4-piperidyl]pyrido[2,3-d]pyridazin-5-one], the IC50 in test [1] (setting [5]), in test [2] (setting [8]) and in test [4] (setting [7]) was 0.1 to 1 µM throughout. For the same compound, the 50% growth inhibitory concentration (GI50) in test [3] was in the range of 0.1 to 1 µM.

Regarding `Cc1cn2cc(-c3ccc4c(=O)n(C5CCNCC5)cnc4c3)cc(F)c2n1` [Compound 205], the values for the IC50 in test [1] (setting [9]), in test [2] (setting [8]) and in test [4] (setting [10]) were 0.1 to 1 µM, 0.1 to 1 µM and < 0.1 µM, respectively. The GI50 in test [3] lay within 0.1 to 1 µM.

As for `Cn1cc2cc(-c3ccc4c(=O)n(C5CCNCC5)cnc4c3)cc(F)c2n1` [Compound 206], the IC50 in test [1] (setting [9]) is 0.1 to 1 µM; in test [2] (setting [8]), 0.1 to 1 µM; in test [4] (setting [10]), < 0.1 µM. In addition, the GI50 in test [3] was in the range of 0.1 to 1 µM.

Regarding `Cc1cn2cc(-c3ccc4c(=O)n(C5CCN(C)CC5)cnc4c3)cc(F)c2n1` [Compound 207], the concentration for half-maximal inhibition (IC50) in test [1] (setting [9]) fell in the range of 1 to 10 µM; in test [2] (setting [8]), 1 to 10 µM; in test [4] (setting [10]) it was 0.1 to 1 µM. The GI50 in test [3] lay within 1 to 10 µM.

Regarding `CN1CCC(n2cnc3cc(-c4ccc5nn(C)cc5c4)ccc3c2=O)CC1` [Compound 208], the IC50 was > 10 µM in test [1] (setting [9]), 1 to 10 µM in test [2] (setting [8]) and 0.1 to 1 µM in test [4] (setting [10]). For the same compound, in test [3], the GI50 was 1 to 10 µM.

As for `CN1CCC(n2cnc3cc(-c4cc(F)c5nn(C)cc5c4)ccc3c2=O)CC1` [Compound 209], the results for the IC50 in test [1] (setting [9]), in test [2] (setting [8]) and in test [4] (setting [10]) were 1 to 10 µM, > 10 µM and < 0.1 µM, respectively. The GI50 in test [3] lay within 1 to 10 µM.

Turning to `Cc1cn2cc(-c3ccc4c(=O)n(C5CCNCC5)cnc4c3F)cc(F)c2n1` [Compound 210], the results for the IC50 in test [1] (setting [9]), in test [2] (setting [8]) and in test [4] (setting [10]) were 1 to 10 µM, 1 to 10 µM and 0.1 to 1 µM, respectively. In test [3], the GI50 lay in the range of 0.1 to 1 µM.

For `Cc1nc2c(F)cc(-c3ccc4c(c3)CCN(C3CCNCC3)C4=O)cc2o1` [Compound 215], the values for the IC50 in test [1] (setting [9]), in test [2] (setting [8]) and in test [4] (setting [10]) were 1 to 10 µM, 0.1 to 1 µM and < 0.1 µM, respectively. Moreover, the GI50 in test [3] is 1 to 10 µM.

In the case of `Cc1cn2cc(-c3ccc4c(c3)CCN(C3CCNCC3)C4=O)cc(Cl)c2n1` [Compound 216, 6-[8-chloro-2-methylimidazo[1,2-a]pyridin-6-yl]-2-(piperidin-4-yl)-3,4-dihydroisoquinolin-1-one], the IC50 is 1 to 10 µM in test [1] (setting [9]), 0.1 to 1 µM in test [2] (setting [8]) and < 0.1 µM in test [4] (setting [10]). For the same compound, in test [3], the GI50 lay in the range of 0.1 to 1 µM.

On to `Cc1cn2cc(-c3ccc4c(c3)CCN(C3CCNCC3)C4=O)cc(C)c2n1` [Compound 217, 6-[2,8-dimethylimidazo[1,2-a]pyridin-6-yl]-2-(piperidin-4-yl)-3,4-dihydroisoquinolin-1-one], for which the IC50 was > 10 µM in test [1] (setting [9]), 0.1 to 1 µM in test [2] (setting [8]) and 0.1 to 1 µM in test [4] (setting [10]). In addition, the GI50 in test [3] lay in the range of 1 to 10 µM.

For the compound `Cc1cn2cc(-c3ccc4c(c3)CCN(C3CCNCC3)C4=O)c(C)cc2n1` [Compound 218, 6-[2,7-dimethylimidazo[1,2-a]pyridin-6-yl]-2-(piperidin-4-yl)-3,4-dihydroisoquinolin-1-one], the IC50 in test [1] (setting [9]), in test [2] (setting [8]) and in test [4] (setting [10]) was 1 to 10 µM in each case. Further, the GI50 in test [3] is 1 to 10 µM.

As to `Cc1cc(-c2ccc3c(c2)CCN(C2CCNCC2)C3=O)cc2cn(C)nc12` [Compound 219, 6-(2,7-dimethylindazol-5-yl)-2-(piperidin-4-yl)-3,4-dihydroisoquinolin-1-one], the IC50 in test [1] (setting [9]) was 1 to 10 µM; in test [2] (setting [8]), 0.1 to 1 µM; in test [4] (setting [10]) it was < 0.1 µM. Moreover, the GI50 in test [3] was in the range of 1 to 10 µM.

On to `O=C1c2ccc(-c3cn[nH]c3)cc2CCN1C1CCNCC1` [Compound 220, 2-(piperidin-4-yl)-6-(1H-pyrazol-4-yl)-3,4-dihydroisoquinolin-1-one], for which the IC50 in test [1] (setting [9]), in test [2] (setting [8]) and in test [4] (setting [10]) was > 10 µM in each case. Also, the GI50 in test [3] was > 10 µM.

For `Cc1cn2cc(-c3ccc4c(c3)CCN(C3CCNCC3)C4=O)nc2c(C)n1` [Compound 221, 6-[6,8-dimethylimidazo[1,2-a]pyrazin-2-yl]-2-(piperidin-4-yl)-3,4-dihydroisoquinolin-1-one], the half-inhibitory concentration (IC50) in test [1] (setting [9]) was > 10 µM; in test [2] (setting [8]), > 10 µM; in test [4] (setting [10]) it was 0.1 to 1 µM. Moreover, the concentration for 50% growth inhibition (GI50) in test [3] was 1 to 10 µM.

Turning to `Cc1cn2nc(-c3ccc4c(c3)CCN(C3CCNCC3)C4=O)nc2c(C)n1` [Compound 222, 6-[6,8-dimethyl-[1,2,4]triazolo[1,5-a]pyrazin-2-yl]-2-(piperidin-4-yl)-3,4-dihydroisoquinolin-1-one], the IC50 was in the range of 1 to 10 µM in test [1] (setting [9]), 1 to 10 µM in test [2] (setting [8]) and 0.1 to 1 µM in test [4] (setting [10]). Moreover, the GI50 in test [3] was 1 to 10 µM.

As for `Cc1cn2nc(-c3ccc4c(c3)CCN(C3CCNCC3)C4=O)cc2c(C)n1` [Compound 223, 6-[4,6-dimethylpyrazolo[1,5-a]pyrazin-2-yl]-2-(piperidin-4-yl)-3,4-dihydroisoquinolin-1-one], the IC50 in test [1] (setting [9]) is > 10 µM; in test [2] (setting [8]), 1 to 10 µM; in test [4] (setting [10]), 0.1 to 1 µM. The GI50 in test [3] lay within 1 to 10 µM.

In the case of `Cc1cn2cc(-c3ccc4c(c3)CCN(C3CCNCC3)C4=O)ncc2n1` [Compound 224], the half-maximal inhibitory concentration (IC50) in test [1] (setting [9]) is > 10 µM; in test [2] (setting [8]), > 10 µM; in test [4] (setting [10]), 0.1 to 1 µM. Besides, the GI50 in test [3] was > 10 µM.

On to `Cn1cc2cc(-c3ccc4c(c3)CCN(C3CCNCC3)C4=O)cc(F)c2n1` [Compound 225], for which the IC50 in test [1] (setting [9]) is > 10 µM; in test [2] (setting [8]), 1 to 10 µM; in test [4] (setting [10]), > 10 µM. Besides, the GI50 in test [3] lay in the range of 1 to 10 µM.

As for `Cc1c(O)c(-c2ncc3c(=O)n([C@H]4CCNC5(CC5)C4)ccc3n2)cc2cn(C)nc12` [Compound 1512], the half-maximal inhibitory concentration (IC50) was 0.1 to 1 µM in test [1] (setting [5]) and < 0.1 µM in test [2] (setting [6]). For the same compound, in test [3], the concentration for 50% growth inhibition (GI50) lay in the range of 0.1 to 1 µM.

Turning to `Cc1c(O)c(-c2nc(C)c3c(=O)n([C@@H]4CCNC5(CC5)C4)ccc3n2)cc2cn(C)nc12` [Compound 1515, (R)-2-(6-hydroxy-2,7-dimethyl-2H-indazol-5-yl)-4-methyl-6-(4-azaspiro[2.5]octan-7-yl)pyrido[4,3-d]pyrimidin-5(6H)-one], the results for the IC50 in test [1] (setting [5]) and in test [2] (setting [6]) were 0.1 to 1 µM and < 0.1 µM, respectively. Besides, the GI50 in test [3] was in the range of 0.1 to 1 µM.
